In patent US11000537B2, “Composition comprising novel ginsenoside” (AMOREPACIFIC CORPORATION, priority 2018, dated 2021):

Tested on: PPARγ (Peroxisome proliferator-activated receptor gamma)
Test: PPARγ adipocyte marker gene expression (qPCR)
Assay type: cell-based
Experimental: The adipocyte cell 3T3-L1 purchased from the International Center for Biological Resources (ATCC) were placed in Dulbecco's Modified Eagle's Medium (Sigma) to which 10% fetal bovine serum (Hyclone) and 1% penicillin/streptomycin (Sigma) were added, and cultured in a 5% CO2 incubator. In order to differentiate preadipocytes into adipocytes, the cells were filled in a culture plate and cultured. After 48 hours, the cells were replaced with Dulbecco's modified eagle medium (DMEM) to which 10% of fetal bovine serum (Hyclone), 0.5 mM of 3-isobutyl-1-methylxanthine (Sigma), 1 μM of dexamethasone (Sigma), 5 μg/ml of insulin (Sigma), 1% of penicillin/streptomycin (Sigma) were added and further cultured for 48 hours. During 48 hours of culture, seven types of ginsenoside reagents (GS #01-GS #06, GS #10) extracted from Ginseng seeds were treated at 10 μM each to affect adipocyte differentiation. […]
After the differentiation of adipocytes in the same manner as above, the expressions of PPARγ (Peroxisome proliferator-activated receptor gamma), aP2 (Adipocyte protein 2) and CD36 were observed as adipocyte marker genes. […] Bio-Rad's CFX96 real-time quantitative PCR (qPCR) instrument was used to quantify the expression levels of each gene. […]

CC1(C)C(=O)CC[C@@]2(C)C1[C@@H](O[C@H]1OC(CO)[C@H](O)C(O)C1O[C@H]1OC(CO)[C@H](O)C(O)C1O)C[C@]1(C)C2C[C@@H](O)C2C([C@]3(C)CC[C@H](C(C)(C)O)O3)CC[C@]21C (stereo partly drawn) [GS #10, (20S,24R)-6-O-β-D-glucopyranosyl(1→2)-β-D-glucopyranoside-dammar-3-one-20,24-epoxy-6a,12b,25-triol]
adipocyte differentiation inhibition, PPARγ gene expression (1 μM and 10 μM, compared with Rg1, Rg3, Rb1, FIG. 39): far superior in adipocyte differentiation inhibition
adipocyte differentiation inhibition, PPARγ gene expression (10 μM, FIG. 35): more effective in inhibiting the adipocyte differentiation
